{
  "source": "patent EP1174152B1",
  "about": "“Inclusion complex of an opioid peptide with cyclodextrin” (COUNCIL OF SCIENTIFIC AND INDUSTRIAL RESEARCH, priority 2000, dated 2002)",
  "key": {"rhesus monkeys": {"tested_on": "rhesus monkeys", "assay": "30 days toxicity study by subcutaneous route in rhesus monkey", "assay_type": "in vivo", "conditions": "once daily for 30 consecutive days, 3.75, 7.5 and 15 mg/kg", "protocol": "(§1) 30 days toxicity study of L-Tyrosyl-D-alanyl-glycyl-N-methylphenylanyl-glycyl-isopropylamide in rat and rhesus monkey by subcutaneous route.\n(§2) Compound L-Tyrosyl-D-alanyl-glycyl-N-methylphenylalanyl-glycyl-isopropylamide dissolved in saline was given daily by subcutaneous route to groups of rats (n=10 males and 10 females in each group) and rhesus monkeys (n=2 males and 2 females in each group) once daily for 30 consecutive days. The dose levels used in rats were 0 0, 7.5, 15.0 and 30.0 mg/kg and in monkeys 0.0, 3.75, 7.5 and 15 mg/kg. Dose levels were selected on the basis of rat ED of 3.0 mg/kg and extrapolation thereof in the monkey. […]\n(§3) Body weights (weekly in rats, initial and day 30 in monkeys), daily food (rat and monkeys) and water (rat only) consumption and parameters of hematology, urinalysis and blood biochemistry of the animals was recorded All the animals were sacrificed at the end of 30 days Necropsy was performed and histophathological examination of all the important organs and tissues were done. […]\n(§4) During necropsy examination of the external surface of the body, all orifices, and the cranial thoracic and abdominal cavities and their contents was performed. […] Liver, kidneys, adrenals, brain heart lungs, spleen and gonads were weighed, and their rdative weights were also calculated. […]"}, "rats": {"tested_on": "rats", "assay": "30 days toxicity study by subcutaneous route in rat", "assay_type": "in vivo", "conditions": "once daily for 30 consecutive days, 7.5, 15.0 and 30.0 mg/kg", "protocol": "as §1, §2, §3, §4"}, "leucine amino peptidase": {"tested_on": "leucine amino peptidase", "conditions": "enzyme hydrolysis with leucine amino peptidase; cited from earlier work"}},
  "data": [
    {"compound": "CC(C)NC(=O)CNC(=O)[C@H](Cc1ccccc1)N(C)C(=O)CNC(=O)[C@@H](C)NC(=O)[C@@H](N)Cc1ccc(O)cc1", "note": "[L-Tyrosyl-D-alanyl-glycyl-N-methylphenylalanyl-glycyl-isopropylamide]", "values": [
      {"measurement": "30-day toxicity study outcome", "setting": "rhesus monkeys", "result": "found safe"},
      {"measurement": "30-day toxicity study outcome", "setting": "rats", "result": "found safe"}
    ]},
    {"compound": "Leu-enkephalin", "values": [
      {"measurement": "half life", "setting": "leucine amino peptidase", "result": 45, "unit": "min"}
    ]}
  ]
}
